From ChEMBL document CHEMBL1133460, “Synthesis and biological evaluation of certain alpha,beta-unsaturated ketones and their corresponding fused pyridines as antiviral and cytotoxic agents” (J Med Chem, 2000)
≈ marks a conversion by molar mass, not a printed value. Where “and” joins values, the source holds several entries; their conditions need not be identical. Equal values may be shown once.

Tests used:
[1] = test system: Human immunodeficiency virus 1; test: In vitro effective concentration against HIV-1 cytopathic effect in T4 cells; Inactive; type: functional, organism-based
MT4 = test: In vitro inhibitory activity against uninfected T4 cells; type: functional, cell-based; conditions: Homo sapiens
Tumor cell line [2] = test: In vitro for median growth inhibitory concentration against colon cancer cell lines; type: functional; conditions: Homo sapiens
Tumor cell line [3] = test: In vitro for median growth inhibitory concentration against melanoma cell lines; type: functional; conditions: Homo sapiens
[4] = test system: Panel leukemia (Carcinoma cell lines); test: In vitro growth inhibitory concentration against leukemia tumor cell lines; type: functional; conditions: Homo sapiens
[5] = test system: Panel melanoma (Carcinoma cell lines); test: In vitro growth inhibitory concentration against melanoma cancer cell lines; type: functional; conditions: Homo sapiens
[6] = test system: Panel prostate (Carcinoma cell lines); test: In vitro growth inhibitory concentration against prostate cancer cell lines; type: functional; conditions: Homo sapiens
[7] = test system: Panel renal (Carcinoma cell lines); test: In vitro growth inhibitory concentration against renal cancer cell lines; type: functional; conditions: Homo sapiens
Tumor cell line [8] = test: In vitro for growth inhibitory concentration against non small lung cancer cell lines; type: functional; conditions: Homo sapiens
Breast cancer cell line [9] = test: In vitro growth inhibitory concentration against breast cancer cell lines; type: functional; conditions: Homo sapiens
[10] = In vitro growth inhibitory concentration against colon cancer tumor cell lines; type: functional; conditions: Homo sapiens
Tumor cell line [11] = test: In vitro for median growth inhibitory conc. against leukemia (compounds full panel MG-MID/leukemia subpanel MG-MID); type: functional; conditions: Homo sapiens
Tumor cell line [12] = test: In vitro for median growth inhibitory concentration against CNS cancer cell lines; type: functional; conditions: Homo sapiens
Tumor cell line [13] = test: In vitro for median growth inhibitory concentration against breast cancer cell lines; type: functional; conditions: Homo sapiens
Tumor cell line [14] = test: In vitro for median growth inhibitory concentration against non small lung cancer cell lines; type: functional; conditions: Homo sapiens
Tumor cell line [15] = test: In vitro for median growth inhibitory concentration against ovarian cancer cell lines; type: functional; conditions: Homo sapiens
Tumor cell line [16] = test: In vitro for median growth inhibitory concentration against prostate cancer cell lines; type: functional; conditions: Homo sapiens
Tumor cell line [17] = test: In vitro for median growth inhibitory concentration against renal cancer cell lines; type: functional; conditions: Homo sapiens
[18] = Full panel mean-graph midpoint (MG-MID).
Ovarian cancer cell line [19] = test: In vitro growth inhibitory concentration against ovarian cancer cell lines; type: functional; conditions: Homo sapiens
[20] = test system: Panel CNS (Carcinoma cell lines); test: In vitro growth inhibitory concentration against CNS cancer cell lines; type: functional; conditions: Homo sapiens
[21] = Full panel mean-graph midpoint (MG-MID)
Human alphaherpesvirus 1 [22] = test: Minimum antiviral concentration proved to be lethal to viral population in uM; type: functional
Human alphaherpesvirus 1 [23] = test: Minimum antiviral concentration proved to be lethal to viral population in ug/mL.; type: functional
Human alphaherpesvirus 1 [24] = test: Concentration which caused 50% loss of the monolayer present around the viral plaques in uM; type: functional, organism-based
Human alphaherpesvirus 1 [25] = test: Concentration which caused 50% loss of the monolayer present around the viral plaques in ug/mL.; type: functional, organism-based
Human alphaherpesvirus 1 [26] = test: In vitro antiviral activity against Herpes Simplex-1 virus (HSV-1) expressed as percent reduction in the number of viral plaques; type: functional; set-up: concentration or dose not given beside the values
NSCLC [27] = test: In vitro growth inhibitory concentration against non-small-cell lung cancer; type: functional; conditions: Homo sapiens
[28] = test system: Panel melanoma (Carcinoma cell lines); test: In vitro median growth inhibitory concentration against melanoma cell lines; type: functional; conditions: Homo sapiens
NSCLC [29] = test: In vitro median growth inhibitory concentration against non-small-cell lung cancer; type: functional; conditions: Homo sapiens
Ovarian cancer cell line [30] = test: In vitro median growth inhibitory concentration against ovarian cancer cell lines; type: functional; conditions: Homo sapiens
[31] = test system: Panel prostate (Carcinoma cell lines); test: In vitro median growth inhibitory concentration against prostate cancer cell lines; type: functional; conditions: Homo sapiens
[32] = test system: Panel renal (Carcinoma cell lines); test: In vitro median growth inhibitory concentration against renal cancer cell lines; type: functional; conditions: Homo sapiens
Tumor cell line [33] = test: Median lethal concentration was estimated; type: ADME, cell-based; conditions: human
Homo sapiens = species: Homo sapiens; test: Selectivity ratio between the full panel MG-MID and leukemia subpanel MG-MID was determined.; type: functional
[34] = test system: Panel leukemia (Carcinoma cell lines); test: In vitro median growth inhibitory conc. against leukemia was estimated.; type: functional; conditions: Homo sapiens
[35] = test system: Panel CNS (Carcinoma cell lines); test: In vitro median growth inhibitory concentration against CNS cancer cell lines; type: functional; conditions: Homo sapiens
Breast cancer cell line [36] = test: In vitro median growth inhibitory concentration against breast cancer cell lines; type: functional; conditions: Homo sapiens
[37] = In vitro median growth inhibitory concentration against colon cancer cell lines; type: functional; conditions: Homo sapiens
[38] = In vitro effective concentration against HIV-1 cytopathic effect in T4 cells; type: functional, cell-based; conditions: Homo sapiens

| Structure (SMILES) | EC50 [1] | IC50 (MT4) | TGI [4] | TGI [5] | TGI [6] | TGI [7] | TGI (Breast cancer cell line [9]) | TGI [10] | TGI (Ovarian cancer cell line [19]) | TGI [20] | MG-MID [21] | GI50 [28] | GI50 (NSCLC [29]) | GI50 (Ovarian cancer cell line [30]) | GI50 [31] | GI50 [32] | Ratio (Homo sapiens) | GI50 [34] | GI50 [35] | GI50 (Breast cancer cell line [36]) | other results |
| --- | --- | --- | --- | --- | --- | --- | --- | --- | --- | --- | --- | --- | --- | --- | --- | --- | --- | --- | --- | --- | --- |
| Cc1ccc(/C=C2\CN(C)CC3=C2OC(N)=C(C#N)C3c2ccc(C)cc2)cc1 (centres undefined) | Not Active | 11.1 µM | 17.9 µM | 59.5 µM | 66.2 µM | 54.5 µM | 70.1 µM | 43.9 µM | 55.7 µM | 83.6 µM | 51.1 µM |  |  |  |  |  |  |  |  |  | GI50 (Tumor cell line [2]): 16.6 µM; GI50 (Tumor cell line [3]): 26.6 µM; TGI (Tumor cell line [8]): 54.1 µM; GI50 (Tumor cell line [11]): 5.1 µM; GI50 (Tumor cell line [12]): 37.7 µM; TGI (Tumor cell line [13]): 30.7 µM; GI50 (Tumor cell line [14]): 3.3 µM; GI50 (Tumor cell line [15]): 15.5 µM; GI50 (Tumor cell line [16]): 29.4 µM; GI50 (Tumor cell line [17]): 18.1 µM; MG-MID [18]: 16.9 µM |
| Cc1ccc(/C=C2\CN(C)C/C(=C\c3ccc(C)cc3)C2O)cc1 |  |  |  |  |  |  |  |  |  |  |  |  |  |  |  |  |  |  |  |  | MAC (Human alphaherpesvirus 1 [22]): 0.06 µM; MAC (Human alphaherpesvirus 1 [23]): 0.02 µg/mL; IC50 (Human alphaherpesvirus 1 [24]): 630 nM; IC50 (Human alphaherpesvirus 1 [25]): 0.2 µg/mL (≈ 0.626 µM); Reduction (Human alphaherpesvirus 1 [26]): 82% |
| C[C@@]1(CO)[C@H](O)CC[C@@]2(C)[C@H]1CC[C@H]1C[C@@H]3C[C@@]12CC[C@]3(O)CO [APHIDICOLIN] |  |  |  |  |  |  |  |  |  |  |  |  |  |  |  |  |  |  |  |  | MAC (Human alphaherpesvirus 1 [22]): 0.02 µM; MAC (Human alphaherpesvirus 1 [23]): 0.005 µg/mL; IC50 (Human alphaherpesvirus 1 [24]): 590 nM; IC50 (Human alphaherpesvirus 1 [25]): 0.2 µg/mL (≈ 0.591 µM); Reduction (Human alphaherpesvirus 1 [26]): 100% |
| COc1ccc(/C=C2\CN(C)CC3=C2N=C(S)NC3c2ccc(OC)cc2)cc1 (centres undefined) | Not Active | 6.8 µM | 36.3 µM | 83.1 µM | 30.1 µM | 97.2 µM | 68.1 µM | 76.3 µM | 76.4 µM | 81.9 µM | 4.9 µM | 11.7 µM | 6.5 µM | 5 µM | 9.1 µM | 5.9 µM | 2.5 | 2 µM | 30 µM | 11.1 µM | TGI (NSCLC [27]): 93.6 µM; LC50 (Tumor cell line [33]): 91.8 µM; GI50 [37]: 4 µM; MG-MID [18]: 56.3 µM |
| CN1C/C(=C\c2cccs2)C2=NN(C)C(c3cccs3)C2C1 (centres undefined) | Not Active | > 200 µM | 87.8 µM | 97.7 µM | > 100 µM | > 100 µM | > 100 µM | > 100 µM | > 100 µM | > 100 µM | 68 µM and 97.7 µM | 85 µM | 86.4 µM | 74.4 µM | 59.5 µM | 89.7 µM | 2.1 | 31.8 µM | 80.7 µM | 86 µM | TGI (NSCLC [27]): > 100 µM; GI50 [37]: 79.2 µM |
| CN1CC2=C(OC(N)=C(C#N)C2c2cccs2)/C(=C/c2cccs2)C1 (centres undefined) | Not Active | 9 µM | 27.6 µM | 87 µM | 90.9 µM | 81.6 µM | 57.7 µM | 87.3 µM | 73.2 µM | > 100 µM | 57.8 µM |  |  |  |  |  |  |  |  |  | GI50 (Tumor cell line [2]): 17.3 µM; GI50 (Tumor cell line [3]): 36.3 µM; TGI (Tumor cell line [8]): 75.5 µM; GI50 (Tumor cell line [11]): 3.2 µM; GI50 (Tumor cell line [12]): 42.2 µM; TGI (Tumor cell line [13]): 27.9 µM; GI50 (Tumor cell line [14]): 16.3 µM; GI50 (Tumor cell line [15]): 25 µM; GI50 (Tumor cell line [16]): 13.5 µM; GI50 (Tumor cell line [17]): 32.5 µM; MG-MID [18]: 11.6 µM |
| Cc1ccc(/C=C2\CN(C)CC3C2=NN(c2ccccc2)C3c2ccc(C)cc2)cc1 (centres undefined) | Not Active | > 200 µM |  |  |  |  |  |  |  |  | 81 µM | 77.9 µM | 97.4 µM | 92.8 µM | 69.5 µM | 83.7 µM | 2.2 | 37.4 µM | 77 µM | > 100 µM | GI50 [37]: > 100 µM |
| COc1ccc(/C=C2\CN(C)Cc3c2nc(O)c(C#N)c3-c2ccc(OC)cc2)cc1 | Not Active | 104 µM | 80.7 µM | > 100 µM | > 100 µM | 87.8 µM | > 100 µM | > 100 µM | > 100 µM | > 100 µM | 52.5 µM and 95.8 µM | 79.9 µM | 66.6 µM | 51.8 µM | 70.9 µM | 61.2 µM | 1.5 | 35 µM | 44.9 µM | 66.9 µM | TGI (NSCLC [27]): > 100 µM; GI50 [37]: 60.5 µM |
| Cc1cn([C@H]2C[C@H](N=[N+]=[N-])[C@@H](CO)O2)c(=O)[nH]c1=O [ZIDOVUDINE] |  | 35.6 µM |  |  |  |  |  |  |  |  |  |  |  |  |  |  |  |  |  |  | EC50 [38]: 0.7 nM |
| Cc1ccc(/C=C2\CN(C)Cc3c2nc(O)c(C#N)c3-c2ccc(C)cc2)cc1 | Not Active | > 200 µM |  |  |  |  |  |  |  |  |  |  |  |  |  |  |  |  |  |  |  |
